Measured values reported in US8703964B2, “Bendamustine cyclopolysaccharide compositions” (Supratek Pharma Inc., priority 2009, dated 2014).
Like-named read-outs stand apart in the source and are kept apart here.

Assays:
RPMI8226 cells = test: Cytotoxicity of bendamustine compositions pre-incubated with media, WST-1 (Example 23); format: cell-based; conditions: for Cell growth: RPMI8226, 72 h; for IC50: Homo sapiens, RPMI-8226, read-out: IC50 of bendamustine, RPMI8226
Protocol: BM and SBECD/LMWP formulation (40 mg/ml BM in 20% SBECD, 1% LMWP) were incubated in DMEM medium containing 10% FBS for 0, 1, or 4 h and then were added in varying concentrations to RPMI8226 cells. During BM treatment, concentrations of SBECD and LMWP were kept constant in culture medium at […], respectively. Cells were then grown for 72 h. The drug cytotoxicity was evaluated using WST-1 procedure.

[1] = Pharmacokinetics of bendamustine dosed to rats, composition with SBECD and cetylpyridinium chloride (Example 11); format: in vivo; conditions: female, Sprague-Dawley, rat, plasma, iv, i.v. 20 mg/kg, read-out: Concentration of bendamustine in rat plasma, Mean (SEM)
Protocol: Control: 6 mg/mL bendamustine hydrochloride, 10.2 mg/mL of mannitol in 0.9% NaCl; dose of 20 mg/kg
Inventive Composition: 5 mg/g bendamustine hydrochloride, 40% w/w sodium sulfobutyl ether β-cyclodextrin, 0.5% cetylpyridinium chloride, 8.5 mg/g mannitol in water (produced following the procedure of Example 8); dose of 20 mg/kg.
Female Sprague-Dawley rats (250-350 g). The animals were kept three per cage with an air filter cover under light (12 h light/dark cycle, light on at 06 h00) and controlled temperature 22° C.+/−1° C. All manipulations with the animals were performed under a sterilized laminar hood. The animals had ad libitum access to Purina mouse chow and water. The animals were fasted overnight and anesthetized, before dosing. Dosing and Sampling: The inventive bendamustine composition and control were administered intravenously to rats in tail vein. After time intervals of 5, 15, 30, 45 min, 1, 1.5, 2 and 3 hrs post-injection, blood samples were collected. The rats were anesthetized by general inhalation of isoflurane. The blood samples were collected from the jugular vein with heparinized tube and kept on ice. Blood was immediately centrifuged, and plasma was separated. The plasma samples were immediately extracted. Sample Extraction and Analysis: The plasma samples 0.100 mL were transferred to plastic tubes. The samples were extracted with 0.400 mL of 100 mM HCl in acetonitrile while being shaken vigorously for 30 seconds. The samples were centrifuged at 10000 RPM for 5 minutes. The supernatant was separated. The samples were frozen in dry ice and kept at −80° C. until HPLC analysis. 20 microliter aliquots were injected into the HPLC for analysis. The HPLC Conditions: C18 reversed phase column 50×4.6 mm, Symmetry/Shield 3.5 micrometer Column temperature 30° C. Flow rate 1.5 mL/min Injection volume 20 microliters Fluorescence detection at wavelengths: excitation 327 nm, emission 420 nm Mobile phase: Buffer A: 5% acetonitrile 0.1% TFA Buffer B: 90% acetonitrile 0.1% TFA Run time: 10 min The improved pharmacokinetic profiles of bendamustine for tested composition versus the control is shown in Table 1 below.

[2] = Pharmacokinetics of bendamustine dosed to rats, composition with SBECD and protamine sulphate (Example 13); format: in vivo; conditions: female, Sprague-Dawley, rat, plasma, iv, i.v. 10 mg/kg, read-out: Concentration of bendamustine in rat plasma, Mean (SEM)
Protocol: Control: 2.5 mg/mL bendamustine hydrochloride, 4.25 mg/mL of mannitol in 0.9% NaCl; dose of 10 mg/kg
Inventive Composition: 2.5 mg/mL bendamustine hydrochloride, 40% w/w sodium sulfobutyl ether β-cyclodextrin, 3% protamine sulfate, 4.3 mg/g mannitol in water (produced according to the process described in Example 10); dose of 10 mg/kg.
Female Sprague-Dawley rats (250-350 g). The animals were kept three per cage with an air filter cover under light (12 h light/dark cycle, light on at 06 h00) and controlled temperature of 22° C.+/−1° C. All manipulations with the animals were performed under a sterilized laminar hood. The animals had ad libitum access to Purina mouse chow and water. The animals were fasted overnight and anesthetized, before dosing. Dosing and Sampling: Bendamustine composition and control were administered intravenously to rats in tail vein. After time intervals 5, 15, 30, 45 min, 1, 1.5, 2 and 3 hrs post-injection, the blood samples were collected. The rats were anesthetized by general inhalation of isoflurane. The blood samples were collected from the jugular vein with heparinized tube and kept on ice. Blood was immediately centrifuged, and plasma was separated. The plasma samples were immediately extracted. Sample Extraction and Analysis: The plasma samples 0.100 mL were transferred to plastic tubes. The samples were extracted with 0.400 mL of 100 mM HCl in acetonitrile while being shaken vigorously for 30 seconds. The samples were centrifuged at 10000 RPM for 5 minutes. The supernatant was separated. The samples were frozen in dry ice and kept at −80° C. until HPLC analysis. 20 microliter aliquots were injected into HPLC for analysis. The HPLC conditions: C18 reversed phase column 50×4.6 mm, Symmetry/Shield 3.5 micrometer Column temperature 30° C. Flow rate 1.5 mL/min Injection volume 20 microliters Fluorescence detection at wavelengths: excitation 327 nm, emission 420 nm Mobile phase: Buffer A: 5% acetonitrile 0.1% TFA Buffer B: 90% acetonitrile 0.1% TFA Run time: 10 min The improved pharmacokinetic profiles of Bendamustine for tested composition versus the control is shown in Table 3 below.

Cn1c(CCCC(=O)O)nc2cc(N(CCCl)CCCl)ccc21 [BM, 4-[5-[bis(2-chloroethyl)amino]-1-methylbenzimidazol-2-yl]butanoic acid]
Cell growth (RPMI8226 cells; Bendamustine 1 uM, pre-incubated in medium 0 h): 100%
Cell growth (RPMI8226 cells; Bendamustine 1 uM, pre-incubated in medium 1 h): 100%
Cell growth (RPMI8226 cells; Bendamustine 1 uM, pre-incubated in medium 4 h): 100%
Cell growth (RPMI8226 cells; Bendamustine 15 uM, pre-incubated in medium 0 h): 83%
Cell growth (RPMI8226 cells; Bendamustine 15 uM, pre-incubated in medium 1 h): 100%
Cell growth (RPMI8226 cells; Bendamustine 15 uM, pre-incubated in medium 4 h): 100%
Cell growth (RPMI8226 cells; Bendamustine 31 uM, pre-incubated in medium 0 h): 70%
Cell growth (RPMI8226 cells; Bendamustine 31 uM, pre-incubated in medium 1 h): 100%
Cell growth (RPMI8226 cells; Bendamustine 31 uM, pre-incubated in medium 4 h): 100%
Cell growth (RPMI8226 cells; Bendamustine 62 uM, pre-incubated in medium 0 h): 46%
Cell growth (RPMI8226 cells; Bendamustine 62 uM, pre-incubated in medium 1 h): 106%
Cell growth (RPMI8226 cells; Bendamustine 62 uM, pre-incubated in medium 4 h): 104%
Cell growth (RPMI8226 cells; Bendamustine 125 uM, pre-incubated in medium 0 h): 11%
Cell growth (RPMI8226 cells; Bendamustine 125 uM, pre-incubated in medium 1 h): 20%
Cell growth (RPMI8226 cells; Bendamustine 125 uM, pre-incubated in medium 4 h): 105%
Cell growth (RPMI8226 cells; Bendamustine 250 uM, pre-incubated in medium 0 h): −23%
Cell growth (RPMI8226 cells; Bendamustine 250 uM, pre-incubated in medium 1 h): −45%
Cell growth (RPMI8226 cells; Bendamustine 250 uM, pre-incubated in medium 4 h): 75%
Cell growth (RPMI8226 cells; Bendamustine 500 uM, pre-incubated in medium 0 h): −87%
Cell growth (RPMI8226 cells; Bendamustine 500 uM, pre-incubated in medium 1 h): −85%
Cell growth (RPMI8226 cells; Bendamustine 500 uM, pre-incubated in medium 4 h): 8%
Cell growth (RPMI8226 cells; Bendamustine 1000 uM, pre-incubated in medium 0 h): −98%
Cell growth (RPMI8226 cells; Bendamustine 1000 uM, pre-incubated in medium 1 h): −102%
Cell growth (RPMI8226 cells; Bendamustine 1000 uM, pre-incubated in medium 4 h): −99%
IC50 (RPMI8226 cells; time of pre-incubation 0 h): 62 µM
IC50 (RPMI8226 cells; time of pre-incubation 1 h): 106 µM
IC50 (RPMI8226 cells; time of pre-incubation 4 h): 390 µM
LC50 (RPMI8226 cells; RPMI8226, change of LC50 (50% death of cells) per hour of pre-incubation in medium): 107 ± 11 µM/h
TGI (RPMI8226 cells; RPMI8226, change of TGI (total growth inhibition) per hour of pre-incubation in medium): 98 ± 18 µM/h
concentration at 0.08 h ([1]; 0.08 h post injection): 12300 ng/mL
concentration at 0.25 h ([1]; 0.25 h post injection): 7620 ng/mL
concentration at 0.5 h ([1]; 0.5 h post injection): 3050 ng/mL
concentration at 0.75 h ([1]; 0.75 h post injection): 966 ng/mL
concentration at 1 h ([1]; 1 h post injection): 414 ng/mL
concentration at 1.5 h ([1]; 1.5 h post injection): 133 ng/mL
concentration at 2 h ([1]; 2 h post injection): 54 ng/mL
concentration at 3 h ([1]; 3 h post injection): 9 ng/mL
concentration at 0.08 h ([2]; 0.08 h post injection): 6040 ng/mL
concentration at 0.25 h ([2]; 0.25 h post injection): 2430 ng/mL
concentration at 0.5 h ([2]; 0.5 h post injection): 520 ng/mL
concentration at 0.75 h ([2]; 0.75 h post injection): 145 ng/mL
concentration at 1 h ([2]; 1 h post injection): 48 ng/mL
concentration at 1.5 h ([2]; 1.5 h post injection): 8 ng/mL
concentration at 2 h ([2]; 2 h post injection): 2 ng/mL
concentration at 3 h ([2]; 3 h post injection): 0 ng/mL
